One may read the IC50 as the point on the concentration scale where inhibition reaches its midpoint. A higher IC50 goes with lower potency.

Data set [1] is described as follows: Cytotoxicity in Vero cells. The settings on record: African green monkey, Vero kidney cells. The class given is cell-based.
A further data set in a line: in vitro. The note with it: human, lymphocytic CEM cells.
Data set [2] is described as follows: Cytotoxicity in uninfected PHA-stimulated human PBM cells. The class given is cell-based. The settings on record: uninfected phytohemagglutinin-stimulated PBM cells.

Where only a bound is given, the exact number is not on record here.

Consider `CC(C)(C)OC(=O)N1[C@H](CO)CC(F)(F)[C@H]1n1ccc(=O)[nH]c1=O` [Analogue 18a, 1-[(2S,5S)-N-tert-Butyloxycarbonyl-3,3-difluoro-5-(hydroxymethyl)pyrrolidin-2-yl]-uracil], for which the IC50 (in data set [1]; in the data set “in vitro”) was more than 100 µM each time. As for `CC(C)(C)OC(=O)N1[C@H](CO)CC(F)(F)[C@H]1n1cc(F)c(=O)[nH]c1=O` [Analogue 18d, 1-[(2S,5S)-N-tert-Butyloxycarbonyl-3,3-difluoro-5-(hydroxymethyl)pyrrolidin-2-yl]-5-fluorouracil], the IC50 (in data set [1]; in the data set “in vitro”) was more than 100 µM in each case. For the compound `CC(C)(C)OC(=O)N1[C@H](CO)CC(F)(F)[C@@H]1n1ccc(=O)[nH]c1=O` [Analogue 19a, 1-[(2R,5S)-N-tert-butyloxycarbonyl-3,3-difluoro-5-(hydroxymethyl)pyrrolidin-2-yl]-uracil], the IC50 in “in vitro” was more than 100 µM. On to `CC(C)(C)OC(=O)N1[C@H](CO)CC(F)(F)[C@@H]1n1cc(F)c(=O)[nH]c1=O` [Analogue 19d, 1-[(2R,5S)-N-tert-Butyloxycarbonyl-3,3-difluoro-5-(hydroxymethyl)pyrrolidin-2-yl]-5-fluorouracil], for which the IC50 (in data set [1]; in “in vitro”) was more than 100 µM throughout.

In turn, `CC(C)(C)OC(=O)N1[C@H](CO)CC(F)(F)[C@@H]1n1cnc2c(Cl)ncnc21` [Analogue 26, 9-[(2R,5S)-N-tert-Butyloxycarbonyl-3,3-difluoro-5-(hydroxymethyl)pyrrolidin-2-yl]-6-chloropurine] yielded a half-maximal inhibitory concentration (IC50) in data set [1] of more than 100 µM. The same measure, in the same setting: the figure for `CC(C)(C)OC(=O)N1[C@H](CO)CC(F)(F)[C@H]1n1cnc2c(Cl)ncnc21` [Analogue 27, 9-[(2S,5S)-N-tert-Butyloxycarbonyl-3,3-difluoro-5-(hydroxymethyl)pyrrolidin-2-yl]-6-chloropurine] is more than 100 µM. Regarding `CC(C)(C)OC(=O)N1[C@H](CO)CC(F)(F)[C@@H]1n1cnc2ncnc(Cl)c21` [Analogue 28, 7-[(2R,5S)-N-tert-Butyloxycarbonyl-3,3-difluoro-5-(hydroxymethyl)pyrrolidin-2-yl]-6-chloropurine], the IC50 in data set [1] was more than 100 µM.

`CC(C)(C)OC(=O)N1[C@H](CO)CC(F)(F)[C@H]1n1cnc2ncnc(Cl)c21` [Analogue 29, 7-[(2S,5S)-N-tert-Butyloxycarbonyl-3,3-difluoro-5-(hydroxymethyl)pyrrolidin-2-yl]-6-chloropurine] yielded an IC50 in data set [1] of more than 100 µM. Consider `CC(C)(C)OC(=O)N1[C@H](CO)CC(F)(F)[C@@H]1n1cnc2c(N)ncnc21` [Analogue 30, 9-[(2R,5S)-N-tert-Butyloxycarbonyl-3,3-difluoro-5-(hydroxymethyl)pyrrolidin-2-yl]-adenine], for which the IC50 (in data set [2]; in data set [1]; in “in vitro”) was more than 100 µM each time. In the case of `CC(C)(C)OC(=O)N1[C@H](CO)CC(F)(F)[C@H]1n1cnc2c(N)ncnc21` [Analogue 31, 9-[(2S,5S)-N-tert-Butyloxycarbonyl-3,3-difluoro-5-(hydroxymethyl)pyrrolidin-2-yl]-adenine], the 50% inhibitory concentration (IC50) (in data set [2]; in data set [1]; in the data set “in vitro”) was more than 100 µM in each case.

For `CC(C)(C)OC(=O)N1[C@H](CO)CC(F)(F)[C@@H]1n1cnc2ncnc(N)c21` [Analogue 32, 7-[(2R,5S)-N-tert-Butyloxycarbonyl-3,3-difluoro-5-(hydroxymethyl)pyrrolidin-2-yl]-adenine], the IC50 (in data set [2]; in data set [1]; in “in vitro”) was more than 100 µM each time.

For `CC(C)(C)OC(=O)N1[C@H](CO)CC(F)(F)[C@H]1n1cnc2ncnc(N)c21` [Analogue 33, 7-[(2S,5S)-N-tert-Butyloxycarbonyl-3,3-difluoro-5-(hydroxymethyl)pyrrolidin-2-yl]-adenine], the IC50 (in data set [2]; in data set [1]; in “in vitro”) was more than 100 µM each time.

The values are drawn from paper PMC3489957 (Bioorganic & medicinal chemistry, 2012).
